Experimental data: patent publication US5723631A, “Coumarin derivatives as retroviral inhibitors” (SmithKline Beecham Corporation, priority 1995, dated 1998)
Like-named read-outs stand apart in the source and are kept apart here.

How the values were obtained:
[1] = molecular target: T1, HIV reverse transcriptase (Human immunodeficiency virus type 1 group M subtype B, UniProt P03366); assay: HIV reverse transcriptase inhibition (TCA precipitation assay / scintillation proximity assay); type: biochemical
T1 construct: Recombinant HIV reverse transcriptase; made in house
Description: 5. Reverse Transcriptase Activity
RT inhibition was determined by a TCA precipitation assay as follows:
TCA-precipitation assay for HIV reverse transcriptase.
A heteropolymeric primer template was prepared by hybridizing a 691 nucleotide RNA molecule derived from the gag region of HIV [(+)-GAG^691, prepared as described in Mizrahi, V., Biochemistry, 28:9088-9094 (1989)], to a synthetic oligodeoxynucleotide (sequence: 5'-[…]-3'). The primer template (10 nM) was incubated in reaction buffer (50 mM Tris-HCl, pH 7.8, 80 mM KCl, 6 mM MgCl2, 10 mM DTT, 0.01 mg/ml BSA) with inhibitor, 10 μM dGTP, 10 μM dATP, and 28 μCi/ml of [3H]TYP (Amersham). Recombinant HIV reverse transcriptase (prepared as described in Mizrahi, et al., Arch. Biochem. Biophys., 273: 347-358, (1989)) was added to a concentration of 2-8 nM, and the reaction was incubated for 15 min at 37° C. (total reaction volume, 50 μL). The reaction was terminated with 50 μL of 20% TCA in 100 mM sodium pyrophosphate (ice cold) and chilled on ice for 15-30 min. The reaction mixture was filtered through glass fiber filters using a cell harvester, and the radioactivity that adhered to the filter was quantified using an LKB betaplate counter.
Scintillation proximity assay for HIV reverse tanscriptase.
HIV reverse transcriptase SPA enzyme assay system kits were obtained from Amersham (item number NK8972) and used as described in the package insert. Briefly, 10 μL of primer-template as supplied in the kit was added to 70 μL of dNTP/[3H]TTP solution. Ten μL of the inhibitor to be tested was added, followed by recombinant HIV RT (prepared as above) to a concentration of 2 nM. The reaction mixture was incubated for 10 min at room temperature and then terminated with 40 μL of 0.5M EDTA. Ten μL of streptavidin-SPA beads were added to each tube and the incorporated radioactivity was measured in an LKB betaplate counter.

[2] = tested on: human immunodeficiency virus-1 reverse transcriptase (HIV-1 RT); details: literature, Kashman et al. 1992; cited from earlier work
[3] = Cellular cytotoxicity in Molt4 cells; type: cell-based; details: human, Measured via XTT
Description: Cytotoxicity was tested with the CD4+cell line, Molt4. The compounds of the present invention were dissolved in DMSO in order to maximize solubility and provide a common solvent system. […] Cytotoxicity was measured as the inhibition of ^3 H-thymidine incorporation into the host cell's genome after exposure to the compounds of the present invention.

[4] = molecular target: T2, HIV RT in which amino acid #181 was changed from tyrosine to cysteine (Human immunodeficiency virus type 1 BH10, UniProt P03366, Y780C); assay: Inhibition of TIBO-resistant mutant HIV RT, amino acid #181 tyrosine to cysteine; type: biochemical; details: Tyr181 to cysteine mutant
T2 construct: wild type recombinant per Mizrahi 1989

HIV-1 (IIIB Stock) = assay: HIV-1 infectivity inhibition assay (Molt4 cells); type: cell-based; details: for IC50: read-out: IC50 (50% Inhibitory concentration for cytopathicity by HIV); for Selective Index (Cytotoxycity/IC50 ratio): cytotoxicity/IC50 ratio, 10080 min
Description: 6. HIV-1 Infectivity Inhibition Assay
In addition, the compounds of the present invention were assayed via a virus neutralization, or HIV infectivity assay as follows:
Bulk Infection of Molt4 Cells.
Bulk infection is used to overcome variations inherent in individual well infections. Sufficient cells and diluted virus stock for an experiment are mixed together in a T-75 flask (Corning) so that the following ratio per well of virus and cells is maintained: 100 μl containing 45 TCID50 of virus (IIIB Stock) mixed with 100 μl of Molt4 cells (3×10^4 cells/well or 3×10^5 /ml). Virus is allowed to adsorb for 90 min. at 37° C. in CO2 incubator. […] of cell/virus mixture is then aliquoted into individual wells of a 24-well plate.
Appropriate 1/200 volumes of inhibitor dilutions at 200X final concentrations in 100% DMSO are added [i.e., to the 497.5 μl of virus infected cells, 2.5 μl of inhibitor dilution of 100% DMSO or 100% DMSO alone (for virus controls) is carefully added to appropriate wells]. Dilution series are generally 5-fold dilutions starting from 50 μg/ml.
Cultures are fed with RPMI 1640+20% FBS containing 1× concentration of inhibitor series (i.e., starting concentrations present at beginning of experiment) at the following times and volumes:
(Final volume in each well=1.5 ml)
Culture supernatants are harvested at 7 days post infection. Generally 90 μl of culture medium is transferred into a 96-well culture plate containing 10 μl 5% Triton X-100 in PBS. The plate is sealed, wiped with gauze saturated with 70% ethanol+detergent and stored at -80° C. until Micro RTs or p24 ELISAs are done. The results of HIV infectivity,inhibition is presented below:
^2 50% Inhibitory concentration for cytopathicity by HIV

[5] = molecular target: T3, HIV RT in which amino acid #181 was changed from tyrosine to isoleucine (Human immunodeficiency virus type 1 BH10, UniProt P03366, Y780I); assay: Inhibition of TIBO-resistant mutant HIV RT, amino acid #181 tyrosine to isoleucine; type: biochemical; details: Tyr181 to isoleucine mutant
T3 construct: wild type recombinant per Mizrahi 1989

[6] = Compounds 22 and 23, Example 7, read-out: Reverse Transcriptase Activity: IC50
[7] = recombinant HIV RT, RT inhibition results table of Example 5, read-out: IC50
[8] = Human immunodeficiency virus 1, IIIB, MOLT-4, 168 h

Molecule | CC50 [3] | IC50 [1, 7] | other results
CCCc1cc(=O)oc2c3c(c4c(c12)OC(C)(C)C=C4)O[C@H](C)[C@@H](C)[C@@H]3O (relative stereo) [(±)-20, (±)-Calanolide A] | – | – | HIV-1 RT-inhibitory potency compared with natural calanolide A (in words) ([1]; synthetic racemate vs data reported for natural calanolide A): in full agreement with the data reported for natural calanolide A
CCCc1cc(=O)oc2c3c(c4c(c12)OC(C)(C)C=C4)O[C@@H](C)C[C@@H]3O (relative stereo) [Compound 22] | – | – | IC50 [1, 6]: 1.78 µM
CCCc1cc(=O)oc2c3c(c4c(c12)OC(C)(C)C=C4)O[C@@H](C)C[C@H]3O (relative stereo) [Compound 23] | – | – | IC50 [1, 6]: 0.6 µM
CCCc1cc(=O)oc2c3c(c4c(c12)OC(C)(C)C=C4)O[C@H](C)[C@@H](C)[C@@H]3O [Calanolide A] | – | – | inhibition of HIV-1 RT (in words) [2]: potent inhibitor
C/C=C(\C)C(=O)c1c(OC)c2c(c3c(-c4ccccc4)cc(=O)oc13)OC(C)(C)C=C2 [Calophyllolide] | 4.5 µM | > 50 µM | –
C[C@@H]1[C@H](O)c2c(c3c(c4c(-c5ccccc5)cc(=O)oc24)OC(C)(C)C=C3)O[C@@H]1C [Inophyllum A] | 33 µM | 9 µM | –
C[C@H]1[C@H](O)c2c(c3c(c4c(-c5ccccc5)cc(=O)oc24)OC(C)(C)C=C3)O[C@@H]1C [Inophyllum B] | 55 µM | 0.3 µM | inhibition of mutant HIV RT relative to wild-type (in words) [4]: potency comparable to that observed with wild-type HIV RT; IC50 (HIV-1 (IIIB Stock); [8]): 1.4 µM; Selective Index (Cytotoxycity/IC50 ratio) (HIV-1 (IIIB Stock)): 39; activity in the RT-ase assay (in words) [1]: sub-micromolar activity; inhibition of mutant HIV RT relative to wild-type (in words) [5]: potency comparable to that observed with wild-type HIV RT
C[C@H]1Oc2c3c(c4c(-c5ccccc5)cc(=O)oc4c2C(=O)[C@@H]1C)OC(C)(C)C=C3 [Inophyllum C] | 18 µM | > 50 µM | –
C[C@H]1[C@@H](C)Oc2c3c(c4c(-c5ccccc5)cc(=O)oc4c2[C@@H]1O)OC(C)(C)C=C3 [Inophyllum D] | 15 µM | 30 µM | –
C[C@@H]1C(=O)c2c(c3c(c4c(-c5ccccc5)cc(=O)oc24)OC(C)(C)C=C3)O[C@@H]1C [Inophyllum E] | 6.2 µM | > 50 µM | –
C[C@@H]1[C@H](O)c2c(c3c(c4c(-c5ccccc5)cc(=O)oc24)O[C@@H]2[C@H]3C2(C)C)O[C@@H]1C [Inophyllum G1] | – | > 50 µM | –
C[C@@H]1[C@H](O)c2c(c3c(c4c(-c5ccccc5)cc(=O)oc24)O[C@H]2[C@@H]3C2(C)C)O[C@@H]1C [Inophyllum G2] | – | > 50 µM | –
C[C@@H]1[C@@H](C)Oc2c3c(c4c(-c5ccccc5)cc(=O)oc4c2[C@@H]1O)OC(C)(C)C=C3 [Inophyllum P] | 25 µM | 0.6 µM | inhibition of mutant HIV RT relative to wild-type (in words) [4]: potency comparable to that observed with wild-type HIV RT; IC50 (HIV-1 (IIIB Stock); [8]): 1.6 µM; Selective Index (Cytotoxycity/IC50 ratio) (HIV-1 (IIIB Stock)): 16; activity in the RT-ase assay (in words) [1]: sub-micromolar activity; inhibition of mutant HIV RT relative to wild-type (in words) [5]: potency comparable to that observed with wild-type HIV RT
tetrahydro-imidazo[4,5,1-jk][1,4]-benzodiazepin-2-(1H)-one and -thione [TIBO, reference compound] | – | – | IC50 (HIV-1 (IIIB Stock); Molt4 cells, harvest 7 days post infection): 0.19 µM; Selective Index (Cytotoxycity/IC50 ratio) (HIV-1 (IIIB Stock)): 100
